Laboratory results from US10111874B2, “Combination therapies for treatment of cancer” (Araxes Pharma LLC, priority 2014, dated 2018).

molecular target: T1, KRAS G12C 1-169, his-tagged protein, GDP-loaded (Homo sapiens, UniProt P01116, G12C); experiment: Biochemical assay: covalent binding to KRAS G12C analyzed by mass spectrometry; conditions: compounds 1-47, measured at 24 h; also: test concentration or dose not given here
T1 construct: KRAS G12C 1-169, his-tagged protein, GDP-loaded
T1 sequence (P01116 1-169 isoform P01116-2 G12C): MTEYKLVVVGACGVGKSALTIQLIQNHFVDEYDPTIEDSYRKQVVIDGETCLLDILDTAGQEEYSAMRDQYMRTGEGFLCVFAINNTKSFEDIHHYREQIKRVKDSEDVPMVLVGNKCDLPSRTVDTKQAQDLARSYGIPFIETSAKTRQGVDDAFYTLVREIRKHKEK

Structure (SMILES)	Binding %
C=CC(=O)N1CCC(Nc2n[nH]c3cc(Cl)c(-c4ccccc4Cl)cc23)CC1 [Compound I-31, 1-(4-(6-chloro-5-(2-chlorophenyl)-1H-indazol-3-ylamino)piperidin-1-yl)prop-2-en-1-one]	+ (+indicates binding activity from 5% to 25%)
C=CC(=O)N1CCN(c2nc(OC)nc3cc(Cl)c(-c4ccc(Cl)cc4)cc23)CC1 [Compound I-43, 1-(4-(7-chloro-6-(4-chlorophenyl)-2-methoxyquinazolin-4-yl)piperazin-1-yl)prop-2-en-1-one]	+++ (+++indicates binding activity greater than 50% and up to 75%)
C=CC(=O)N1CCN(c2ncnc3cc(Cl)c(-c4ccc(C#N)cc4)cc23)CC1 [Compound I-16, 4-(4-(4-acryloylpiperazin-1-yl)-7-chloroquinazolin-6-yl)benzonitrile]	++ (++indicates binding activity greater than 25% and up to 50%)

same assay, conditions: compounds 48-246, measured at 2 h

Structure (SMILES)	Binding %
C=CC(=O)N1CCN(c2ncnc3cc(-c4c(F)cccc4C(N)=O)c(Cl)cc23)CC1 [Compound I-232, 2-(4-(4-acryloylpiperazin-1-yl)-6-chloroquinazolin-7-yl)-3-fluorobenzamide]	+ (+indicates binding activity from 5% to 25%)
C=CC(=O)N1CCN(c2ncnc3cc(-c4ccccc4CC)c(Cl)cc23)CC1 [Compound I-77, 1-(4-(6-chloro-7-(2-ethylphenyl)quinazolin-4-yl)piperazin-1-yl)prop-2-en-1-one]	+++ (+++indicates binding activity greater than 50% and up to 75%)
C=CC(=O)N1CCN(c2ncnc3cc(-c4c(O)cccc4C(F)(F)F)c(Cl)cc23)CC1 [Compound I-233, 1-(4-(6-chloro-7-(2-hydroxy-6-(trifluoromethyl)phenyl)quinazolin-4-yl)piperazin-1-yl)prop-2-en-1-one]	+++ (+++indicates binding activity greater than 50% and up to 75%)
C=CC(=O)N1CCN(c2ncnc3cc(-c4c(F)cccc4OC)c(Cl)cc23)CC1 [Compound I-194, 1-(4-(6-chloro-7-(2-fluoro-6-methoxyphenyl)quinazolin-4-yl)piperazin-1-yl)prop-2-en-1-one]	++++ (++++indicates binding activity greater than 75%)
CCOC(=O)/C=C/C(=O)N1CCN(c2ncnc3cc(-c4ccc(F)cc4F)c(Cl)cc23)CC1 [Compound I-239, (E)-ethyl 4-(4-(6-chloro-7-(2,4-difluorophenyl)quinazolin-4-yl)piperazin-1-yl)-4-oxobut-2-enoate]	+++ (+++indicates binding activity greater than 50% and up to 75%)
C=CC(=O)N1CCN(c2ncnc3c(F)c(-c4c(O)cccc4F)c(Cl)cc23)CC1 [Compound I-227, 1-(4-(6-chloro-8-fluoro-7-(2-fluoro-6-hydroxyphenyl)quinazolin-4-yl)piperazin-1-yl)prop-2-en-1-one]	++++ (++++indicates binding activity greater than 75%)
C=CC(=O)N1CCN(c2c(C#N)cnc3c(F)c(-c4ccccc4F)c(Cl)cc23)CC1 [Compound I-242, 4-(4-acryloylpiperazin-1-yl)-6-chloro-8-fluoro-7-(2-fluorophenyl)quinoline-3-carbonitrile]	++++ (++++indicates binding activity greater than 75%)
CN(C)C/C=C/C(=O)N1CCN(c2ncnc3c(F)c(-c4ccccc4F)c(Cl)cc23)CC1 [Compound I-229, (E)-1-(4-(6-chloro-8-fluoro-7-(2-fluorophenyl)quinazolin-4-yl)piperazin-1-yl)-4-(dimethylamino)but-2-en-1-one]	++ (++indicates binding activity greater than 25% and up to 50%)
C=CC(=O)N1CCN(c2ncnc3cc(-c4ccccc4C4(C(N)=O)CC4)c(Cl)cc23)CC1 [Compound I-176, 1-(2-(4-(4-acryloylpiperazin-1-yl)-6-chloroquinazolin-7-yl)phenyl)cyclopropanecarboxamide]	+++ (+++indicates binding activity greater than 50% and up to 75%)
C=CC(=O)N1CCN(c2ncnc3cc(-c4cc(C5(C#N)CC5)ccc4F)c(Cl)cc23)CC1 [Compound I-143, 1-(3-(4-(4-acryloylpiperazin-1-yl)-6-chloroquinazolin-7-yl)-4-fluorophenyl)cyclopropanecarbonitrile]	+++ (+++indicates binding activity greater than 50% and up to 75%)
C=CC(=O)N1CCN(c2c(C#N)cnc3cc(-c4cc(O)ccc4F)c(Cl)cc23)CC1 [Compound I-196, 4-(4-acryloylpiperazin-1-yl)-6-chloro-7-(2-fluoro-5-hydroxyphenyl)quinoline-3-carbonitrile]	++++ (++++indicates binding activity greater than 75%)
C=CC(=O)N1CCN(c2ncnc3cc(-c4ccccc4Cl)c(Cl)cc23)CC1CC#N (centres unmarked) [Compound I-109, 2-(1-acryloyl-4-(6-chloro-7-(2-chlorophenyl)quinazolin-4-yl)piperazin-2-yl)acetonitrile]	++++ (++++indicates binding activity greater than 75%)
C=CC(=O)N1CCN(c2nccc3cc(Cl)ccc23)CC1C#N (centres unmarked) [Compound I-61, 1-acryloyl-4-(6-chloroisoquinolin-1-yl)piperazine-2-carbonitrile]	+ (+indicates binding activity from 5% to 25%)
CN(C)C/C=C/C(=O)N1CCN(c2ncnc3cc(-c4ccc(F)cc4F)c(Cl)cc23)CC1 [Compound I-219, (E)-1-(4-(6-chloro-7-(2,4-difluorophenyl)quinazolin-4-yl)piperazin-1-yl)-4-(dimethylamino)but-2-en-1-one]	+ (+indicates binding activity from 5% to 25%)
CC(C)/C=C(\C#N)C(=O)N1CCN(c2ncnc3cc(-c4ccccc4F)c(Cl)cc23)CC1 [Compound I-241, (E)-2-(4-(6-chloro-7-(2-fluorophenyl)quinazolin-4-yl)piperazine-1-carbonyl)-4-methylpent-2-enenitrile]	+ (+indicates binding activity from 5% to 25%)
C=CC(=O)N1CCN(c2ncnc3cc(-c4ccccn4)c(Cl)cc23)CC1 [Compound I-92, 1-(4-(6-chloro-7-(pyridin-2-yl)quinazolin-4-yl)piperazin-1-yl)prop-2-en-1-one]	+ (+indicates binding activity from 5% to 25%)
C=CC(=O)N1CCN(c2ncnc3cc(-c4ccc(Cl)cc4)c(Cl)cc23)CC1 [Compound I-78, 1-(4-(6-chloro-7-(4-chlorophenyl)quinazolin-4-yl)piperazin-1-yl)prop-2-en-1-one]	+ (+indicates binding activity from 5% to 25%)
C=CC(=O)N1CCN(c2ncnc3cc(-c4cccc(C#N)c4)c(Cl)cc23)CC1 [Compound I-130, 3-(4-(4-acryloylpiperazin-1-yl)-6-chloroquinazolin-7-yl)benzonitrile]	+ (+indicates binding activity from 5% to 25%)
C=CC(=O)N1CCN(c2ncnc3cc(-c4ccccc4O)c(Cl)cc23)CC1C#N (centres unmarked) [Compound I-146, 1-acryloyl-4-(6-chloro-7-(2-hydroxyphenyl)quinazolin-4-yl)piperazine-2-carbonitrile]	++++ (++++indicates binding activity greater than 75%)
C=CC(=O)N1CCN(c2ncnc3cc(Cl)c(-c4ccc(Cl)cc4)cc23)C[C@@H]1C(N)=O [Compound I-64, (R)-1-acryloyl-4-(7-chloro-6-(4-chlorophenyl)quinazolin-4-yl)piperazine-2-carboxamide]	++ (++indicates binding activity greater than 25% and up to 50%)
C=CC(=O)N1CCN(c2c(C#N)cnc3cc(-c4cc(O)ccc4Cl)c(Cl)cc23)CC1 [Compound I-184, 4-(4-acryloylpiperazin-1-yl)-6-chloro-7-(2-chloro-5-hydroxyphenyl)quinoline-3-carbonitrile]	++++ (++++indicates binding activity greater than 75%)
C=CC(=O)N1CCN(c2ncnc3c(F)c(-c4ccccc4C(F)(F)F)c(Cl)cc23)CC1 [Compound I-209, 1-(4-(6-chloro-8-fluoro-7-(2-(trifluoromethyl)phenyl)quinazolin-4-yl)piperazin-1-yl)prop-2-en-1-one]	++++ (++++indicates binding activity greater than 75%)

same assay, conditions: compounds 247-342, measured at 30 min

Structure (SMILES)	Binding %
C=CC(=O)N1CCN(c2nc(NC3CCOC3)nc3cc(-c4c(C)ccc5[nH]ncc45)c(Cl)cc23)CC1 (centres unmarked) [Compound 330, 1-(4-(6-chloro-7-(5-methyl-1H-indazol-4-yl)-2-(tetrahydrofuran-3-ylamino)quinazolin-4-yl)piperazin-1-yl)prop-2-en-1-one]	++ (++indicates binding activity greater than 25% and up to 50%)
C=CC(=O)N1CCN(c2ncnc3cc(-c4c(O)cccc4C#N)c(Cl)cc23)CC1 [Compound I-265, 2-(4-(4-acryloylpiperazin-1-yl)-6-chloroquinazolin-7-yl)-3-hydroxybenzonitrile]	+ (+indicates binding activity from 5% to 25%)

same assay, conditions: determined at 24 hrs

Structure (SMILES)	Binding %
C=CC(=O)N1CC(N2CCN(C(=O)Cc3c[nH]c4ccccc34)CC2)C1 [II-25, 1-(3-(4-(2-(1H-indol-3-yl)acetyl)piperazin-1-yl)azetidin-1-yl)prop-2-en-1-one]	+ (+indicates binding activity from 5% to 15%)
C=CC(=O)N1CCN(C2CN(C(=O)CNc3cc(Cl)c(Cl)cc3O)C2)CC1 [II-39, 1-(4-(1-(2-(4,5-dichloro-2-hydroxyphenyl-amino)acetyl)azetidin-3-yl)piperazin-1-yl)prop-2-en-1-one]	+++ (+++indicates binding activity greater than 25% and up to 50%)
C=CC(=O)N1CC(N2CCN(C(=O)CNc3cc(Cl)c(Br)cc3O)CC2)C1 [II-28, 1-(3-(4-(2-(4-bromo-5-chloro-2-hydroxyphenylamino)-cetyl)piperazin-1-yl)azetidin-1-yl)prop-2-en-1-one]	+++ (+++indicates binding activity greater than 25% and up to 50%)
C=CC(=O)N1CC(N2CCN(C(=O)CNc3cc(Cl)c(Cl)c(C(N)=O)c3)CC2)C1 [II-44, 5-(2-(4-(1-acryloylazetidin-3-yl)piperazin-1-yl)-2-oxoethylamino)-2,3-dichlorobenzamide]	+ (+indicates binding activity from 5% to 15%)
C=CC(=O)N1CC(N2CCN(C(=O)CCc3cc(Cl)c(Cl)cc3O)CC2)C1 [II-6, 1-(3-(4-(3-(4,5-dichloro-2-hydroxyphenyl)-propanoyl)piperazin-1-yl)azetidin-1-yl)prop-2-en-1-one]	+ (+indicates binding activity from 5% to 15%)
